ChEMBL document CHEMBL1125472, “5-lipoxygenase: properties, pharmacology, and the quinolinyl(bridged)aryl class of inhibitors” (J Med Chem, 1992)

What was measured:
Cyclooxygenase = target: T1, Cyclooxygenase (Rattus norvegicus, UniProt P35355+Q63921); experiment: The compound was tested for inhibitory activity against cyclooxygenase in rat polymorphonuclear leukocytes[PMNS]; type: cell-based
T1 sequence (P35355 whole entry): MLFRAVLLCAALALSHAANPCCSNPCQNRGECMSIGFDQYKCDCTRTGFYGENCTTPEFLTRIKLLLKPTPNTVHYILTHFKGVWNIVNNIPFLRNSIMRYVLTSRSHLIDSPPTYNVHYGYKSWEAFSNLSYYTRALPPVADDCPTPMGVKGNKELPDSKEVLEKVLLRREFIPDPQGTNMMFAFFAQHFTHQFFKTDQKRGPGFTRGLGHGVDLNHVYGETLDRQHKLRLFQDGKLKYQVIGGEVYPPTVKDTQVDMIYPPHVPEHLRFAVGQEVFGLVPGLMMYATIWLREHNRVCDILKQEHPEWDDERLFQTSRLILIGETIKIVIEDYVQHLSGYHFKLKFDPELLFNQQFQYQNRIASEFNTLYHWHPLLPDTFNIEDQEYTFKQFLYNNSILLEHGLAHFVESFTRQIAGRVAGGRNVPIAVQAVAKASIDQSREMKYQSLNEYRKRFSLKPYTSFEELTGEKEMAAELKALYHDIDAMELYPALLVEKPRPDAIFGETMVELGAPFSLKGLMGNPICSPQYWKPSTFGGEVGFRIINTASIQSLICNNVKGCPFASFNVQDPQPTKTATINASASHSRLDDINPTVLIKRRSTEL
T1 sequence (Q63921 whole entry): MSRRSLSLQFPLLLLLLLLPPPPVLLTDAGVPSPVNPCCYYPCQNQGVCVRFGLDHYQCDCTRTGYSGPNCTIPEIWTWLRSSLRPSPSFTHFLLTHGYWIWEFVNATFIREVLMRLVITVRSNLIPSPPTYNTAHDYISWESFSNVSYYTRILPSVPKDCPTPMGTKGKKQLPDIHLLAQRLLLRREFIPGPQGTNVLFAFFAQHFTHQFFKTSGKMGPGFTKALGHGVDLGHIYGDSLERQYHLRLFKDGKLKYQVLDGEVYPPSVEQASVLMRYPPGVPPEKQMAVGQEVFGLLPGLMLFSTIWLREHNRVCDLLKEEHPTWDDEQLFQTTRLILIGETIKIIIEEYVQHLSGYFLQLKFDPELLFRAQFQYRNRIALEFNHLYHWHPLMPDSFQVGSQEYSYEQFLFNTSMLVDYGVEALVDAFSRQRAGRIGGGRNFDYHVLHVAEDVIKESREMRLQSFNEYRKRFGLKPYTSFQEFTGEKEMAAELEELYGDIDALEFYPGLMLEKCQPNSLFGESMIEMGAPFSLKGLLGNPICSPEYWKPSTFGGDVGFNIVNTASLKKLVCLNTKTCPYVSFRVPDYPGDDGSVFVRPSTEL

[1] = target: T2, Polyunsaturated fatty acid 5-lipoxygenase (Mus musculus, UniProt P48999); experiment: The compound was tested for inhibitory activity against 5-lipoxygenase in mouse macrophages
T2 sequence (P48999 whole entry): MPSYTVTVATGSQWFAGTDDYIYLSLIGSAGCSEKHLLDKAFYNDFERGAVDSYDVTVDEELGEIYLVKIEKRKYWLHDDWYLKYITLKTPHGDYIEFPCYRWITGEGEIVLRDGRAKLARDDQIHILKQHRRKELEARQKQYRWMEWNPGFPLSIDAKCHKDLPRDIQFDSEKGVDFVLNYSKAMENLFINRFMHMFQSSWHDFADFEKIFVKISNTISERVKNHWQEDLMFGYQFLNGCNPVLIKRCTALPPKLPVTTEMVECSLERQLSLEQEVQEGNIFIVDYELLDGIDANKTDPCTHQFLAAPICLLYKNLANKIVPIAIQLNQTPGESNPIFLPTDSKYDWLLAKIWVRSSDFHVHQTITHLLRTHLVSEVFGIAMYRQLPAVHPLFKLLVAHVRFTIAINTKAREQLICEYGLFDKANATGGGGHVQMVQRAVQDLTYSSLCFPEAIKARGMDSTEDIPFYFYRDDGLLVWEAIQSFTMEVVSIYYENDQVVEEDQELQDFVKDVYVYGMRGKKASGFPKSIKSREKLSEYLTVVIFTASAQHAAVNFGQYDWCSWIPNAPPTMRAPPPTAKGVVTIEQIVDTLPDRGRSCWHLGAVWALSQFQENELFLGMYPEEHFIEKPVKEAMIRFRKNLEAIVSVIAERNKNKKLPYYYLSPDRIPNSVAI

Mus musculus [2] = species: Mus musculus; experiment: The effective dose which inhibits […] induced contact hypersensitivity in mouse ears; type: functional
Mus musculus [3] = species: Mus musculus; experiment: Compound was tested for tetradecanoylphorbol acetate (TPA) induced inflammation at concentration of 1 mg/ear in mouse; type: functional

IC50 (Cyclooxygenase): 6300 nM
IC50 [1]: 200 nM
SMILES: c1ccc2nc(COc3cccc4ccccc34)ccc2c1
ED50 (Mus musculus [2]): 0.4 mg ear-1
Inhibition (Mus musculus [3]): 40%
